We go through one compound from patent US20090233307A1, “METHODS FOR DETECTION OF SINGLE STRAND BREAKS IN DNA” (The University of North Carolina at Chapel Hill, priority 2008, published 2009).

Series [1] relates to DT40 cells. Briefly: SSB repair through NAD(P)H depletion, DT40 cells. Format: cell-based, chicken. The settings on record: 1 mM MMS for up to 4 hours, DT40 cells. As to the method: (§1) SSB repair capacity was determined by a real-time colorimetric assay that measures intracellular NAD(P)H levels (Tano et al., DNA Repair, 6, 869-875 (2007)). PARP-1 activation during SSB repair leads to NAD^+ consumption, which can be indirectly monitored through NAD(P)H depletion (Nakamura et al., Nucleic Acids Res., 31, e104 (2003)). Briefly, 5×10^3 cells/well were seeded into a 96-well plate. After a 30 minute incubation period, the cells were treated with 1 mM MMS quickly followed by the addition of a dye containing XTT (Sigma) and 1-methoxy PMS (Sigma). For up to 4 hours, the NAD(P)H-dependent conversion of the XTT tetrazolium salt to a yellow colored formazan dye was measured spectrophotometrically. Decreases in intracellular NAD(P)H levels were determined through comparison of values to those of the PBS control. Established methods for detecting SSBs have not been adequately characterized for pH effects on DNA structure and chemistry and also lack a high specificity for SSBs, primarily because of artifactual SSB formation. […] The accumulation of SSBs leads to PARP-1 over-activation and the consumption of NAD+, which is indirectly monitored in living cells through the measurement of intracellular NAD(P)H depletion using tetrazolium salts, such as XTT, during chemical exposure (Tano et al., DNA Repair, 6, 869-875 (2007)). […]

For series [2], the system named is Pol β null cells. In kind it is cell-based, chicken. On the procedure: (§2) DT40 and Pol β null cells were seeded into 100 cm dishes and allowed to divide overnight to reach the density of 1×10^6 cells/mL. Cells were exposed to a continuous treatment of 1 mM methyl methanesulfonate (MMS; Aldrich) for up to 4 hours. Control cells received 1× phosphate buffered saline (PBS) for 0.5 hour. After incubation, cells were harvested, washed with chilled 1× PBS, pelleted, and stored at −80° C. until DNA isolation. Using this protocol, DT40 cells were also incubated in the absence of chemical to obtain a stock of untreated DNA.

For series [3], the system named is Pol β null cells. Briefly: SSB repair through NAD(P)H depletion, Pol β null cells. In kind it is cell-based, chicken. The settings on record: 1 mM MMS for up to 4 hours, Pol β null cells. As to the method:
as §1

For series [4], the system named is DT40 cells. Format: cell-based. As to conditions: chicken, 1 mM. As to the method:
as §2

For the next series, the system named is isolated, genomic DNA. In words: SSB formation at N7-methylguanine adducts, isolated DNA, NaOH or piperidine denaturation, AGE. The settings on record: DNA + 1 mM MMS + 30 mM OTX 1 hour. On the procedure: To visualize the conversion of MMS induced N7-methylguanine (N7-meG) adducts into SSBs, the AGE assay described above was modified with a piperidine treatment (Mattes et. al., Biochem. Biophys. Acta 868:71-76 (1986)). Equal amounts of DNA (25 μg) were incubated for 1 hour at 37° C. in the presence of 30 mM OTX (Aldrich) and 1 mM MMS or PBS in 50 mM HEPES buffer (pH 7). Treated DNA was washed and collected using microcon YM-3 centrifugal filter devices (Amicon Bioseparations). The treated DNA was then incubated with alkaline buffer (pH≧12.8) that contained either 100 mM NaOH or 1 M piperidine for 20 minutes at 37° C. This DNA was then washed and collected by centrifugal filter devices, and the concentrations determined by UV. DNA (3-5 μg) from each sample received loading dye and was loaded onto a 0.7% agarose gel prepared as previously described. Electrophoresis, neutralization, staining, and image analysis were performed as described above.
ALSs such as N7-methylguanine (N7-meG), the predominate lesion formed by monofunctional alkylating agents, are generated during MMS exposure (Wyatt et. al., Chem. Res. Toxicol. 19: 1580-1594 (2006)). In the absence of OTX, ALSs other than AP sites may contribute to SSBs detected during AGE. […]

As to `COS(C)(=O)=O` [MMS, methyl methanesulfonate], the results for the “intracellular NAD(P)H levels” value with DT40 cells [1] and in the series with Pol β null cells [3] were “time-dependent decrease in intracellular NAD(P)H levels” and “time-dependent decrease but with more extensive depletion occurring as early as 30 minutes”, respectively. For the same compound, in the series with Pol β null cells [2], the “AP site formation (ASB assay) compared with parental DT40 cells” value is given as “more massive AP site formation”. The “AP sites (ASB assay) compared to control” value in the series on Pol β null cells [2] (chicken, 1 mM) is given as “time-dependent, significant (p<0.01 for all time points, student t-test) increase in AP sites”; with DT40 cells [4] it was “time-dependent, significant (p<0.01 for all time points, student t-test) increase in AP sites”. The “amount of SSBs after NaOH induced DNA denaturation, MMS treated vs control DNA” value with isolated, genomic DNA (100 mM NaOH 20 minutes) is on record as “no difference in the amount of SSBs”. Besides, the “DNA migration after piperidine treatment” value with isolated, genomic DNA (1 M piperidine 20 minutes, vs PBS control) is listed as “notable increase in DNA migration”.
